For one assay, the target named is T1, PI3K delta (PI3 Kd) (Homo sapiens, UniProt O00329).
T1 construct: endogenous in cells; host or cells: Jurkat, clone E6-1 (ATCC TIB-152) cell lysate
Briefly: kinobeads assay, PI3K delta. The assay is classed as binding. The essentials:
(§1)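 IC50 values came from dose-response curves after test compound (1:3 series) competed with an immobilized phenylmorpholin-chromen affinity matrix for kinases in Jurkat lysate at 5 mg/mL protein. Eluted captured DNA-PK and PI3Kδ were measured by specific-antibody dot blot and infrared imaging. Buffer was Tris pH 7.4, NP40, MgCl2, NaCl, vanadate, DTT, NaF.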

Assay [1] has as its target T2, DNA-dependent protein kinase (DNA-PK) (Homo sapiens, UniProt P78527).
T2 construct: endogenous in cells; host or cells: Jurkat, clone E6-1 (ATCC TIB-152) cell lysate
Nature of the assay: kinobeads assay, DNA-PK. The assay is classed as binding. The essentials: as §1

The subject of assay [2] is S6RP serine-240/244 phosphorylation. Briefly: In vitro Phospho-S6 cellular assay (pS6RP S240/244) in HEK293T/17 cells. The assay is classed as cell-based. The settings on record: Homo sapiens, 2 hours, read-out: pS6 IC50. The text has this:
Activation of mTOR signaling results in phosphorylation of several downstream targets. In cells, mTOR exists in two different protein complexes. The mTOR Complex-1 (mTORC1) phosphorylates and activates S6 Kinase 1 (S6K1) and S6 Kinase 2 (S6K2) (also known as p70S6K) which then phosphorylate S6 Ribosomal Protein (S6RP) (also known as RPS6)3. S6RP is phosphorylated on serine 235, serine 236, serine 240 and serine 244 by both pS6K1 and pS6K2. The mTOR Complex-2 (mTORC2) phosphorylates AKT on serine 473 which activates the AKT signaling pathway.
The assay measures a test compound's inhibition of S6RP serine-240/244 phosphorylation and inhibition of Akt serine-473 phosphorylation in human embryonic kidney derived HEK293T/17 cells (ATCC CRL-11268).
The HEK293T/17 cell line is maintained in DMEM media (Invitrogen catalogue number 41965-039) supplemented with 10% FCS at 37° C. in a 5% CO2 humidified incubator.
Cells are seeded in 96-well plates at 40,000 cells/well (pS6RP S240/244 assay) or 80,000 cells/well (pAkt S473 assay) in 90 μl growth media (DMEM, 2% FCS). Plates are incubated for 1 hour in a humidified incubator to allow the cells to adhere. Cells are treated with 8 concentrations of test compounds or DMSO alone for controls (final DMSO concentration 0.1%) and incubated at 37° C. for 2 hours. Then 20 μl of 5× concentrated lysis buffer (750 mM NaCl, 100 mM Tris pH7.4, 5 mM ADTA, 5 mM EGTA, 5% Triton X-100) is added, plates are sealed and incubated for 15 minutes at 4° C. with gentle shaking. After cell lysis, 25 μl cell lysate is transferred to a MesoScale plate coated with an antibody to pS6RP Ser240/244 (MesoScale Discovery K150DGD-3) or an antibody to pAkt Ser 473 (MesoScale Discovery K151DGD-3). Plates have been blocked before by incubation with 150 μl MesoScale Discovery Blocking Solution-A for 1 hour at room temperature followed by washing with 150 μl 1× Tris wash buffer per well. After the transfer of the cell lysate to the MSD plate, the pS6RP (or pAkt) protein is captured on the coated antibody by incubation at room temperature for 1 hour with gentle shaking. After the capture step the plate is washed three times with 150 μl of 1× Tris wash buffer per well. Then 25 μl detection antibody conjugated with a Sulfo-Tag is added and incubated for 1 hour at room temperature with gentle shaking. Subsequently the antibody solution is removed and the plate is washed 3 times with 150 μl×Tris wash buffer per well and 150 μl Read buffer is added. The plates are analysed on a MSD 2400 Plate Reader (MesoScale Discovery). Data analysis is performed using nonlinear regression for a sigmoidal dose-response with a variable slope.

The target of another assay is T3, mTOR (Homo sapiens, UniProt P42345).
T3 construct: endogenous in cells; host or cells: Jurkat, clone E6-1 (ATCC TIB-152) cell lysate
Nature of the assay: mTOR kinobeads assay (competitive binding in Jurkat cell lysate, immunodetection). To be noted: Further Kinobeads Data; read-out: mTor. In short, it runs like this:
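IC50 derived from dose-response curves of mTOR captured on immobilized phenylmorpholin-chromen beads, detected by antibody dot blot with infrared fluorescence.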

A further assay deals with T4, PI3Kalpha (PI3Ka) (Homo sapiens, UniProt P42336).
T4 construct: endogenous in cells; host or cells: cell lysate
Briefly: kinobeads assay, PI3Kalpha. The class given is binding. To be noted: Further Kinobeads Data; for IC50: read-out: PI3Ka. In short, it runs like this:
(§2)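 Competitive binding in cell lysate: test compounds at various concentrations compete with beads carrying an immobilized phenylmorpholin-chromen ligand. Bead-captured kinases are eluted and quantified by multiplexed immunodetection. IC50 values come from dose-response curves for each kinase.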

Another assay has as its target T5, PI3 Kbeta (PI3 Kb) (Homo sapiens, UniProt P42338).
T5 construct: endogenous in cells; host or cells: cell lysate
Nature of the assay: kinobeads assay, PI3Kbeta. The assay is classed as binding. The settings on record: Further Kinobeads Data; read-out: PI3Kb. The essentials:
as §2

The next assay addresses T6, PI3 Kgamma (PI3 Kg) (Homo sapiens, UniProt P48736).
T6 construct: endogenous in cells; host or cells: cell lysate
Nature of the assay: kinobeads assay, PI3Kgamma. The assay is classed as binding. The settings on record: Further Kinobeads Data; read-out: PI3Kg. The essentials: as §2

The mark [3] stands for this setting: kinobeads assay, Table 4, read-out: Inhibition values (IC50) PI3Kd.
Where [4] appears, read: kinobeads assay, Table 6, read-out: Inhibition values (IC50) PI3Kd.
Setting [5] is: kinobeads assay, Table 4, read-out: Inhibition values (IC50) DNA-PK.
Where [6] appears, read: kinobeads assay, Table 6, read-out: Inhibition values (IC50) DNAPK.
[7] abbreviates: Further Kinobeads Data, read-out: PI3Kd.
Setting [8] is: Further Kinobeads Data, read-out: DNAPK.

Structures can show the parent of a compound that is named as a salt. Where two headings read alike, the source gives them in different places.

T1 sequence (O00329 whole entry): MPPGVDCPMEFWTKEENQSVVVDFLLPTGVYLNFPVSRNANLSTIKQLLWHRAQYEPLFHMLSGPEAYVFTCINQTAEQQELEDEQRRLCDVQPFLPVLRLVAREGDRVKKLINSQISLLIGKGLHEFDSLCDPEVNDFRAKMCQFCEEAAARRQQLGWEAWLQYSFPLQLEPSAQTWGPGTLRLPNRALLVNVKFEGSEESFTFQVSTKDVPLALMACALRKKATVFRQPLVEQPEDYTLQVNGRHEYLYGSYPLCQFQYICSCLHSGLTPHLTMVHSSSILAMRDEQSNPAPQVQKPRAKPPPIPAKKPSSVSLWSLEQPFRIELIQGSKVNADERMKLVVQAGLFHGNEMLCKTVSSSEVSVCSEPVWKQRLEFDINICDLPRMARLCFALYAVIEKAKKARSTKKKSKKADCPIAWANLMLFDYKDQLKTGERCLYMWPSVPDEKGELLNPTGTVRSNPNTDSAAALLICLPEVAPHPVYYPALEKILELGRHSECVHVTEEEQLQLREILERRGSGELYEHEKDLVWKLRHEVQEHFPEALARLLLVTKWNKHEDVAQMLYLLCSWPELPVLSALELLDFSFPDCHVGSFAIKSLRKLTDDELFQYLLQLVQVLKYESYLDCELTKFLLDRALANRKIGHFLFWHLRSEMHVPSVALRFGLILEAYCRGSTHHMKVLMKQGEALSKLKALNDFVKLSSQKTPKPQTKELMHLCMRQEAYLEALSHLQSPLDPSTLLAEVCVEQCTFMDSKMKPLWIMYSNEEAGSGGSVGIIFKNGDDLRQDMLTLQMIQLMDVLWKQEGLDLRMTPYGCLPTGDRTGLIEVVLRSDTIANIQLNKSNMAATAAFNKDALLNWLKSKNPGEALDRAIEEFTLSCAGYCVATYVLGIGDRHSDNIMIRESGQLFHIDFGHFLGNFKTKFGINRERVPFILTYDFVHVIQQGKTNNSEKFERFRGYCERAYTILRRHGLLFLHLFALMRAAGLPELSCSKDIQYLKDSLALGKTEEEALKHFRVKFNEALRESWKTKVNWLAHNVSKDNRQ
T1 sequence (P27986 whole entry partner): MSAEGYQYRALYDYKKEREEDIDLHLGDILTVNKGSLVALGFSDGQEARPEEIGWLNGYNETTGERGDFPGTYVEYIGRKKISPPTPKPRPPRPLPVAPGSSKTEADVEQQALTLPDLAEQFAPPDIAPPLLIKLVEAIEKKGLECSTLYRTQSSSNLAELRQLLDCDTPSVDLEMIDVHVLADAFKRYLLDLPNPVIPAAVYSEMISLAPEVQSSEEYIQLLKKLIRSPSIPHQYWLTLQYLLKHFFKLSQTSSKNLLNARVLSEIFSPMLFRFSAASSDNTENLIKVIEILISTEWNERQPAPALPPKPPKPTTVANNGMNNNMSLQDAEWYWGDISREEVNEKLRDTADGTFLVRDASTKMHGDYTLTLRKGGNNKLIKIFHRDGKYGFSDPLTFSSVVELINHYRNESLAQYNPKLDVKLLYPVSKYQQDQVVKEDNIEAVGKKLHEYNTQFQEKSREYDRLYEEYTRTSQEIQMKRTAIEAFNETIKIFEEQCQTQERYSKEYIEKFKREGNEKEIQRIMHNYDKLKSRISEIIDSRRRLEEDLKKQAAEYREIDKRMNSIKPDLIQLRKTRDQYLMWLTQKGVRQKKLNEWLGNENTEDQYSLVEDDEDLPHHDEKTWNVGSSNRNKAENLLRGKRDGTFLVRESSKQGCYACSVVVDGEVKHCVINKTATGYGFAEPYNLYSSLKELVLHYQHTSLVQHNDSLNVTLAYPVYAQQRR
T5 sequence (P42338 whole entry): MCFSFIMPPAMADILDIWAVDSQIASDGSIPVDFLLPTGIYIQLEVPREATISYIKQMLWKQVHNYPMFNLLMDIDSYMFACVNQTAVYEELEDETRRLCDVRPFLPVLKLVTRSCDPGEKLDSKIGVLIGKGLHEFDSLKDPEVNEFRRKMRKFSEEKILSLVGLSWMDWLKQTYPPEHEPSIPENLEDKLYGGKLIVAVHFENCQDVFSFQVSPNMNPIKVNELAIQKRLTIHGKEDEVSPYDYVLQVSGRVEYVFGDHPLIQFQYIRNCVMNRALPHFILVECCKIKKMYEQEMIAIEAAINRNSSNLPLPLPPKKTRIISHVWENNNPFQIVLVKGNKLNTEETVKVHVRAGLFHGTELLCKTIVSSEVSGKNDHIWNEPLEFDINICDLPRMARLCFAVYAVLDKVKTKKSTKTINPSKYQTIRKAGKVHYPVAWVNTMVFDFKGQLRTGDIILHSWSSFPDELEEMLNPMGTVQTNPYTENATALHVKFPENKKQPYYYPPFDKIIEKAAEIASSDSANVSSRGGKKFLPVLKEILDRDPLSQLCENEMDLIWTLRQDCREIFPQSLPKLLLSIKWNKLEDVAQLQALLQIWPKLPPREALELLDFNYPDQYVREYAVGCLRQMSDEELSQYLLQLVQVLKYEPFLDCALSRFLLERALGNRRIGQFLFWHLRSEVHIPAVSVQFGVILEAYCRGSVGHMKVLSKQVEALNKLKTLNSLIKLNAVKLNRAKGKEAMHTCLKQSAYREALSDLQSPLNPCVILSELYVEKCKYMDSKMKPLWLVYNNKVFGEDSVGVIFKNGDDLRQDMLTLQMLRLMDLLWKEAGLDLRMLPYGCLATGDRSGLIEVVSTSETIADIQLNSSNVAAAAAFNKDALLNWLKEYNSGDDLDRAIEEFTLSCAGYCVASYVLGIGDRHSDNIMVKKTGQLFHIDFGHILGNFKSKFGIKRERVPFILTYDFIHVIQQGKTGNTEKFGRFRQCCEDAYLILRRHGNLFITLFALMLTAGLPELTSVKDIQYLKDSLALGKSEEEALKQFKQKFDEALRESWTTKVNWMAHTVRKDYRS
T5 sequence (P27986 whole entry partner): as the sequence (P27986 whole entry partner) above
T6 sequence (P48736 whole entry): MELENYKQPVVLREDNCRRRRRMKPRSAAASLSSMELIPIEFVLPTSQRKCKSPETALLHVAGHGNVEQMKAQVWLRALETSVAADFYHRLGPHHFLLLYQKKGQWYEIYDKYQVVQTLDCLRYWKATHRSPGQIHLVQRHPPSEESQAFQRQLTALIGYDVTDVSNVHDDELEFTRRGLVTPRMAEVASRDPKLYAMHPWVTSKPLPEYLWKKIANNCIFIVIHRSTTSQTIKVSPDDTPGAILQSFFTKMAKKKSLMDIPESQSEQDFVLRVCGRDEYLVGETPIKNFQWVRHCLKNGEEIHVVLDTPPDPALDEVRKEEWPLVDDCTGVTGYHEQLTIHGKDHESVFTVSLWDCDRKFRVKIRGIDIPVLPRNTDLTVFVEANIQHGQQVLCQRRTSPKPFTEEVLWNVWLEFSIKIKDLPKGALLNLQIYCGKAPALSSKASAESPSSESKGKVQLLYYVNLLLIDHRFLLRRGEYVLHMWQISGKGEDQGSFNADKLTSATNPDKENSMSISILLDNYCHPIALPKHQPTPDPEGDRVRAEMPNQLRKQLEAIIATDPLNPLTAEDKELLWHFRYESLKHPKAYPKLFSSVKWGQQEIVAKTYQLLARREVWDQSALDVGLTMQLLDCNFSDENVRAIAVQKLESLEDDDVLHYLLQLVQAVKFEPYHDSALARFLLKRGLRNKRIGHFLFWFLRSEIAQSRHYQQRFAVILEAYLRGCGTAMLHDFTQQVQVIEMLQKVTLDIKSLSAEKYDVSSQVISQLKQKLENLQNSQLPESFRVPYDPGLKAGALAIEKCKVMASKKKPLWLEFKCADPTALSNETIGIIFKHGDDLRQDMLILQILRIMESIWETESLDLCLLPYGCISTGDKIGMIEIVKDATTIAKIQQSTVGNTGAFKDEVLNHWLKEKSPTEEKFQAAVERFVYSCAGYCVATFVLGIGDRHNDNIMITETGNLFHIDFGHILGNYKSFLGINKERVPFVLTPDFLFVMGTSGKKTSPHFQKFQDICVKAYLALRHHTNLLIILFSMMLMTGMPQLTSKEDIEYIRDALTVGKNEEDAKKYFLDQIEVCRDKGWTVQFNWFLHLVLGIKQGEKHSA
T4 sequence (P42336 whole entry): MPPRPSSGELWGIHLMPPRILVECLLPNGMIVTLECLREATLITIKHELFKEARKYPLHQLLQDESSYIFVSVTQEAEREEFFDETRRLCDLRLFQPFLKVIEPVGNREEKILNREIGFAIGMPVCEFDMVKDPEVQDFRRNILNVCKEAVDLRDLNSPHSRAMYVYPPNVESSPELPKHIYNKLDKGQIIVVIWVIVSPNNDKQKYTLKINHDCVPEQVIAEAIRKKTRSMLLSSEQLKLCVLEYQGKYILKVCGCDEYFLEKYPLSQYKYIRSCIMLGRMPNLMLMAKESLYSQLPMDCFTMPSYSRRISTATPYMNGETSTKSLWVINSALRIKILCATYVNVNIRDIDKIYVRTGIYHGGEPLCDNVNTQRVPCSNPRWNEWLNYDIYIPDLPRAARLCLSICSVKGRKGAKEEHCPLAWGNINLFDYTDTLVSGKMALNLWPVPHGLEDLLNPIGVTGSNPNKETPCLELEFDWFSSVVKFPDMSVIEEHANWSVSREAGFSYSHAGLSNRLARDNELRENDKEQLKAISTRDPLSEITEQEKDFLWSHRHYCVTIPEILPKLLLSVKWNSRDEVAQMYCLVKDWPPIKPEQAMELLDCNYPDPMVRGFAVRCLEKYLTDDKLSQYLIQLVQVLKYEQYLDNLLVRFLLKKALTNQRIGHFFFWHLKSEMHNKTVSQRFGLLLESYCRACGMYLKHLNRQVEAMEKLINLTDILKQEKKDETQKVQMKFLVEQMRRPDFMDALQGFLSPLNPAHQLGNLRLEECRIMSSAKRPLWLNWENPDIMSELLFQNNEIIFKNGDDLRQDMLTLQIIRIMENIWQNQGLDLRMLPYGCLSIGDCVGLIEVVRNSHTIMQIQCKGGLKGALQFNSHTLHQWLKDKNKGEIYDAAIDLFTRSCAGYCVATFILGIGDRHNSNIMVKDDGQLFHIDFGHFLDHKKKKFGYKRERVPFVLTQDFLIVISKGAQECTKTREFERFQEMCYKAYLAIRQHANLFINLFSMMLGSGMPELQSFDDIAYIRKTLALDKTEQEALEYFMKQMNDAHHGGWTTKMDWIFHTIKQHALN
T4 sequence (P27986 whole entry partner): as the sequence (P27986 whole entry partner) above

Regarding `CCNC(=O)Nc1ccc(-c2nc3c(c(N4CCOC[C@@H]4C)n2)CN(C(=O)OC(C)(C)C)CC3)cc1` [Example 2, (S)-tert-butyl 2-(4-(3-ethylureido)phenyl)-4-(3-methylmorpholino)-7,8-dihydropyrido[4,3-d]pyrimidine-6(5H)-carboxylate], the IC50 at PI3K delta (PI3 Kd) (setting [3]) was more than 10 µM; on PI3K delta (PI3 Kd) (setting [4]), more than 10 µM; in assay [1] (setting [5]), more than 10 µM; in assay [1] (setting [6]) it was more than 10 µM; in assay [2], 0.122 µM.
With `CCNC(=O)Nc1ccc(-c2nc3c(c(N4CCOCC4)n2)CN(C(=O)OC(C)(C)C)C3)cc1` [Example 63, tert-butyl 2-(4-(3-ethylureido)phenyl)-4-morpholino-5H-pyrrolo[3,4-d]pyrimidine-6(7H)-carboxylate], the IC50 on PI3K delta (PI3 Kd) (setting [3]) is 1 to 10 µM; on PI3K delta (PI3 Kd) (setting [4]), 1 to 10 µM; in assay [1] (setting [5]), more than 10 µM; in assay [1] (setting [6]), more than 10 µM; in assay [2], 0.046 µM.
For `CCNC(=O)Nc1ccc(-c2nc3c(c(N4CCOCC4)n2)CN(C(=O)OC(C)(C)C)C3)c(F)c1` [Example 145, tert-butyl 2-(4-(3-ethylureido)-2-fluorophenyl)-4-morpholino-5H-pyrrolo[3,4-d]pyrimidine-6(7H)-carboxylate], the IC50 on mTOR is 0.1 to 1 µM; on PI3K delta (PI3 Kd) (setting [7]) it was more than 10 µM; in assay [1] (setting [8]) it was more than 10 µM; at PI3 Kbeta (PI3 Kb), more than 10 µM; at PI3 Kgamma (PI3 Kg) it was more than 10 µM. Further, on PI3Kalpha (PI3Ka), the PI3Ka entry is reported as “D (D >10 μM)”.
As for `Cl.O=C(Nc1ccc(-c2nc3c(c(N4CCOCC4)n2)CNC3)c(F)c1)NC1CC1` [Example 148, 1-(Cyclopropyl)-3-(3-fluoro-4-(4-morpholino-6,7-dihydro-5H-pyrrolo[3,4-d]pyrimidin-2-yl)phenyl)urea hydrochloride], the IC50 on mTOR is less than 0.1 µM; on PI3K delta (PI3 Kd) (setting [7]), more than 10 µM; in assay [1] (setting [8]) it was more than 10 µM; on PI3 Kbeta (PI3 Kb), more than 10 µM; at PI3 Kgamma (PI3 Kg) it was more than 10 µM. For the same compound, the PI3Ka entry at PI3Kalpha (PI3Ka) is given as “D (D >10 μM)”.
In the case of `C[C@H]1COCCN1c1nc(-c2ccc(NC(=O)NC3CC3)cc2F)nc2c1CNC2` [Example 149, (S)-1-(Cyclopropyl)-3-(3-fluoro-4-(4-(3-methylmorpholino)-6,7-dihydro-5H-pyrrolo[3,4-d]pyrimidin-2-yl)phenyl)urea hydrochloride], the IC50 was 0.1 to 1 µM on mTOR; more than 10 µM at PI3K delta (PI3 Kd) (setting [7]); more than 10 µM in assay [1] (setting [8]); 1 to 10 µM on PI3Kalpha (PI3Ka); more than 10 µM at PI3 Kbeta (PI3 Kb); more than 10 µM at PI3 Kgamma (PI3 Kg).
Regarding `CCNC(=O)Nc1ccc(-c2nc3c(c(N4CCOCC4)n2)CNC3)c(F)c1` [Example 150, 1-Ethyl-3-(3-fluoro-4-(4-morpholino-6,7-dihydro-5H-pyrrolo[3,4-d]pyrimidin-2-yl)phenyl)urea hydrochloride], the IC50 is less than 0.1 µM at mTOR; more than 10 µM at PI3K delta (PI3 Kd) (setting [7]); more than 10 µM in assay [1] (setting [8]); 1 to 10 µM on PI3Kalpha (PI3Ka); more than 10 µM on PI3 Kbeta (PI3 Kb); more than 10 µM at PI3 Kgamma (PI3 Kg).
On to `CCNC(=O)Nc1ccc(-c2nc3c(c(N4CCOC[C@@H]4C)n2)CN(C(C)=O)C3)c(F)c1` [Example 157, (S)-1-(4-(6-acetyl-4-(3-methylmorpholino)-6,7-dihydro-5H-pyrrolo[3,4-d]pyrimidin-2-yl)-3-fluorophenyl)-3-ethylurea], for which the IC50 on mTOR was less than 0.1 µM; on PI3K delta (PI3 Kd) (setting [7]), 1 to 10 µM; in assay [1] (setting [8]), more than 10 µM; at PI3 Kbeta (PI3 Kb), more than 10 µM; at PI3 Kgamma (PI3 Kg), more than 10 µM. At PI3Kalpha (PI3Ka), the PI3Ka result was “D (D >10 μM)”.
As to `CCNC(=O)Nc1ccc(-c2nc3c(c(N4CCOC[C@@H]4C)n2)CNC3)c(F)c1.Cl` [Example 158, (S)-1-ethyl-3-(3-fluoro-4-(4-(3-methylmorpholino)-6,7-dihydro-5H-pyrrolo[3,4-d]pyrimidin-2-yl)phenyl)urea hydrochloride], the IC50 was less than 0.1 µM at mTOR; more than 10 µM on PI3K delta (PI3 Kd) (setting [7]); more than 10 µM in assay [1] (setting [8]); more than 10 µM at PI3 Kbeta (PI3 Kb); more than 10 µM at PI3 Kgamma (PI3 Kg). The PI3Ka entry at PI3Kalpha (PI3Ka) was “D (D >10 μM)”.
With `CCNC(=O)Nc1ccc(-c2nc3c(c(N4CCOCC4)n2)CN(C(C)=O)C3)c(F)c1` [Example 161, 1-(4-(6-acetyl-4-morpholino-6,7-dihydro-5H-pyrrolo[3,4-d]pyrimidin-2-yl)-3-fluorophenyl)-3-ethylurea], the IC50 at mTOR is less than 0.1 µM; on PI3K delta (PI3 Kd) (setting [7]) it was more than 10 µM; in assay [1] (setting [8]), more than 10 µM; on PI3 Kbeta (PI3 Kb) it was more than 10 µM; at PI3 Kgamma (PI3 Kg), more than 10 µM. Also, at PI3Kalpha (PI3Ka), the PI3Ka result is given as “D (D >10 μM)”.
For `CC(=O)N1Cc2nc(-c3ccc(NC(=O)NC4CC4)cc3F)nc(N3CCOCC3)c2C1` [Example 166, 1-(4-(6-Acetyl-4-morpholino-6,7-dihydro-5H-pyrrolo[3,4-d]pyrimidin-2-yl)-3-fluorophenyl)-3-cyclopropylurea], the IC50 on mTOR is less than 0.1 µM; at PI3K delta (PI3 Kd) (setting [7]), more than 10 µM; in assay [1] (setting [8]), more than 10 µM; at PI3 Kbeta (PI3 Kb) it was more than 10 µM; at PI3 Kgamma (PI3 Kg) it was more than 10 µM. For the same compound, the PI3Ka result on PI3Kalpha (PI3Ka) was “D (D >10 μM)”.
As to `COC(=O)N1Cc2nc(-c3ccc(NC(=O)NCCO)cc3F)nc(N3CCOCC3)c2C1` [Example 175, Methyl 2-(2-fluoro-4-(3-(2-hydroxyethyl)ureido)phenyl)-4-morpholino-5H-pyrrolo[3,4-d]pyrimidine-6(7H)-carboxylate], the IC50 at mTOR was 0.1 to 1 µM; on PI3K delta (PI3 Kd) (setting [7]), more than 10 µM; in assay [1] (setting [8]) it was more than 10 µM; on PI3 Kbeta (PI3 Kb) it was more than 10 µM; at PI3 Kgamma (PI3 Kg), more than 10 µM. In addition, the PI3Ka result on PI3Kalpha (PI3Ka) is “D (D >10 μM)”.
On to `C[C@@H]1COCCN1c1nc(-c2ccc(NC(=O)NC3CC3)cc2F)nc2c1CN(C(=O)OC(C)(C)C)C2` [Example 182, (R)-tert-butyl 2-(4-(3-cyclopropylureido)-2-fluorophenyl)-4-(3-methylmorpholino)-5H-pyrrolo[3,4-d]pyrimidine-6(7H)-carboxylate], for which the IC50 at mTOR is less than 0.1 µM; at PI3K delta (PI3 Kd) (setting [7]), 1 to 10 µM; in assay [1] (setting [8]) it was 1 to 10 µM; at PI3Kalpha (PI3Ka), 1 to 10 µM; at PI3 Kbeta (PI3 Kb), more than 10 µM; at PI3 Kgamma (PI3 Kg), more than 10 µM.
`CC(C)N1Cc2nc(-c3ccc(NC(=O)NCCO)cc3F)nc(N3CCOCC3)c2C1` [Example 184, 1-(3-fluoro-4-(6-isopropyl-4-morpholino-6,7-dihyro-5H-pyrrolo[3,4-d]pyrimidin-2-yl)phenyl)-3-(2-hydroxyethyl)urea]: the IC50 at mTOR was less than 0.1 µM; at PI3K delta (PI3 Kd) (setting [7]), 1 to 10 µM; in assay [1] (setting [8]) it was more than 10 µM; at PI3 Kbeta (PI3 Kb), more than 10 µM; on PI3 Kgamma (PI3 Kg), more than 10 µM. Also, at PI3Kalpha (PI3Ka), the PI3Ka result is listed as “D (D >10 μM)”.

(Values after patent US8785457B2 (Cellzome Limited, priority 2009, dated 2014).)
